{"source": "ChEMBL document CHEMBL1201862", "about": "“PubChem BioAssay data set” (2004)", "experiment_in_all_cases": "inhibition of tumour cell growth, NCI panel, 48 h", "key": {"OVCAR-4": {"test_system": "OVCAR-4"}, "OVCAR-8": {"test_system": "OVCAR-8"}, "SR": {"test_system": "SR"}, "ACHN": {"test_system": "ACHN"}, "DLD-1": {"test_system": "DLD-1"}, "M19-MEL": {"test_system": "M19-MEL"}, "KM-20L2": {"test_system": "KM-20L2"}, "KM12": {"test_system": "KM12"}, "DMS-114": {"test_system": "DMS-114"}, "EKVX": {"test_system": "EKVX"}, "Malme-3M": {"test_system": "Malme-3M"}, "SNB-78": {"test_system": "SNB-78"}, "SNB-19": {"test_system": "SNB-19"}, "HT-29": {"test_system": "HT-29"}, "MOLT-4": {"test_system": "MOLT-4"}, "U-251": {"test_system": "U-251"}, "HCT-116": {"test_system": "HCT-116"}, "COLO 205": {"test_system": "COLO 205"}, "HCC 2998": {"test_system": "HCC 2998"}, "HCT-15": {"test_system": "HCT-15"}, "A498": {"test_system": "A498"}, "CAKI-1": {"test_system": "CAKI-1"}, "SF-539": {"test_system": "SF-539"}, "TK-10": {"test_system": "TK-10"}, "OVCAR-5": {"test_system": "OVCAR-5"}, "SK-MEL-2": {"test_system": "SK-MEL-2"}, "K562": {"test_system": "K562"}, "NCI-H23": {"test_system": "NCI-H23"}, "HL-60": {"test_system": "HL-60"}, "SN12C": {"test_system": "SN12C"}, "SK-OV-3": {"test_system": "SK-OV-3"}, "M14": {"test_system": "M14"}, "SF-295": {"test_system": "SF-295"}, "UO-31": {"test_system": "UO-31"}, "UACC-257": {"test_system": "UACC-257"}, "DMS-273": {"test_system": "DMS-273"}, "IGROV-1": {"test_system": "IGROV-1"}, "HOP-62": {"test_system": "HOP-62"}, "LXFL 529": {"test_system": "LXFL 529"}, "NCI-H522": {"test_system": "NCI-H522"}, "RXF 393": {"test_system": "RXF 393"}, "NCI-H460": {"test_system": "NCI-H460"}, "SF-268": {"test_system": "SF-268"}, "UACC-62": {"test_system": "UACC-62"}, "SK-MEL-5": {"test_system": "SK-MEL-5"}, "HOP-18": {"test_system": "HOP-18"}, "SNB-75": {"test_system": "SNB-75"}, "A549": {"test_system": "A549"}, "HOP-92": {"test_system": "HOP-92"}, "NCI-H226": {"test_system": "NCI-H226"}, "XF498": {"test_system": "XF498"}, "SW-620": {"test_system": "SW-620"}, "OVCAR-3": {"test_system": "OVCAR-3"}, "RPMI-8226": {"test_system": "RPMI-8226"}, "786-0": {"test_system": "786-0"}}, "note": "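Grown in 96-well plates, cells were treated for 48 hours with each compound at five concentrations. Insufficient inhibition: endpoint recorded as highest concentration tested. GI50: concentration for 50% inhibition of growth.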 The source made the active and inactive calls. Cut-off read from the data, not from the text of the source: active = GI50 up to about 1.1 µM and inactive = higher.", "data": [{"smiles": "CN(C)C=[N+]=[N-]", "values": [{"measurement": "GI50", "setting": "OVCAR-4", "result": "> 100 µM (inactive)"}, {"measurement": "GI50", "setting": "OVCAR-8", "result": "> 100 µM (inactive)"}, {"measurement": "GI50", "setting": "SR", "result": "> 100 µM (inactive)"}, {"measurement": "GI50", "setting": "ACHN", "result": "> 100 µM (inactive)"}, {"measurement": "GI50", "setting": "DLD-1", "result": "> 100 µM (inactive)"}, {"measurement": "GI50", "setting": "M19-MEL", "result": "> 100 µM (inactive)"}, {"measurement": "GI50", "setting": "KM-20L2", "result": "> 100 µM (inactive)"}, {"measurement": "GI50", "setting": "KM12", "result": "> 100 µM (inactive)"}, {"measurement": "GI50", "setting": "DMS-114", "result": "> 100 µM (inactive)"}, {"measurement": "GI50", "setting": "EKVX", "result": "> 100 µM (inactive)"}, {"measurement": "GI50", "setting": "Malme-3M", "result": "> 100 µM (inactive)"}, {"measurement": "GI50", "setting": "SNB-78", "result": "> 100 µM (inactive)"}, {"measurement": "GI50", "setting": "SNB-19", "result": "> 100 µM (inactive)"}, {"measurement": "GI50", "setting": "HT-29", "result": "> 100 µM (inactive)"}, {"measurement": "GI50", "setting": "MOLT-4", "result": "> 100 µM (inactive)"}, {"measurement": "GI50", "setting": "U-251", "result": "> 100 µM (inactive)"}, {"measurement": "GI50", "setting": "HCT-116", "result": "> 100 µM (inactive)"}, {"measurement": "GI50", "setting": "COLO 205", "result": "> 100 µM (inactive)"}, {"measurement": "GI50", "setting": "HCC 2998", "result": "> 100 µM (inactive)"}, {"measurement": "GI50", "setting": "HCT-15", "result": "> 100", "unit": "µM"}, {"measurement": "GI50", "setting": "A498", "result": "> 100 µM (inactive)"}, {"measurement": "GI50", "setting": "CAKI-1", "result": "43 µM (inactive)"}, {"measurement": "GI50", "setting": "SF-539", "result": "> 100 µM (inactive)"}, {"measurement": "GI50", "setting": "TK-10", "result": "> 100 µM (inactive)"}, {"measurement": "GI50", "setting": "OVCAR-5", "result": "> 100 µM (inactive)"}, {"measurement": "GI50", "setting": "SK-MEL-2", "result": "> 100 µM (inactive)"}, {"measurement": "GI50", "setting": "K562", "result": "> 100 µM (inactive)"}, {"measurement": "GI50", "setting": "NCI-H23", "result": "> 100 µM (inactive)"}, {"measurement": "GI50", "setting": "HL-60", "result": "> 100 µM (inactive)"}, {"measurement": "GI50", "setting": "SN12C", "result": "> 100 µM (inactive)"}, {"measurement": "GI50", "setting": "SK-OV-3", "result": "> 100 µM (inactive)"}, {"measurement": "GI50", "setting": "M14", "result": "> 100 µM (inactive)"}, {"measurement": "GI50", "setting": "SF-295", "result": "> 100 µM (inactive)"}, {"measurement": "GI50", "setting": "UO-31", "result": "> 100 µM (inactive)"}, {"measurement": "GI50", "setting": "UACC-257", "result": "> 100 µM (inactive)"}, {"measurement": "GI50", "setting": "DMS-273", "result": "> 100 µM (inactive)"}, {"measurement": "GI50", "setting": "IGROV-1", "result": "> 100 µM (inactive)"}, {"measurement": "GI50", "setting": "HOP-62", "result": "> 100 µM (inactive)"}, {"measurement": "GI50", "setting": "LXFL 529", "result": "> 100 µM (inactive)"}, {"measurement": "GI50", "setting": "NCI-H522", "result": "0.17 µM (active)"}, {"measurement": "GI50", "setting": "RXF 393", "result": "> 100 µM (inactive)"}, {"measurement": "GI50", "setting": "NCI-H460", "result": "> 100 µM (inactive)"}, {"measurement": "GI50", "setting": "SF-268", "result": "> 100 µM (inactive)"}, {"measurement": "GI50", "setting": "UACC-62", "result": "> 100 µM (inactive)"}, {"measurement": "GI50", "setting": "SK-MEL-5", "result": "> 100 µM (inactive)"}, {"measurement": "GI50", "setting": "HOP-18", "result": "> 100 µM (inactive)"}, {"measurement": "GI50", "setting": "SNB-75", "result": "> 100 µM (inactive)"}, {"measurement": "GI50", "setting": "A549", "result": "> 100 µM (inactive)"}, {"measurement": "GI50", "setting": "HOP-92", "result": "> 100 µM (inactive)"}, {"measurement": "GI50", "setting": "NCI-H226", "result": "> 100 µM (inactive)"}, {"measurement": "GI50", "setting": "XF498", "result": "> 100 µM (inactive)"}, {"measurement": "GI50", "setting": "SW-620", "result": "> 100 µM (inactive)"}, {"measurement": "GI50", "setting": "OVCAR-3", "result": "> 100 µM (inactive)"}, {"measurement": "GI50", "setting": "RPMI-8226", "result": "> 100 µM (inactive)"}, {"measurement": "GI50", "setting": "786-0", "result": "> 100 µM (inactive)"}]}]}
